Here are results for one compound from patent US12527788B2, “Defining RNA-small molecule affinity landscapes enables design of a small molecule inhibitor of an oncogenic non-coding RNA” (University of Florida Research Foundation, Incorporated, priority 2017, dated 2026).

In assay [1] the test system is 5′GAU/3′C_A (A bulge of pre-miR-18a). The assay is described as follows: HiT-StARTS Fitness Score, 3×2 ILL selection. The assay is classed as binding, human. The note with it: Zobs normalized to most significant binder. The text has this: (§1) Additionally, Zobs Rank (and by analogy Zobs) can also be used to estimate the affinities of binding interactions (FIG. 5). Single exponential curves with an asymptote defined a correlation between Zobs and experimentally determined Kd for each compound and its cognate RNA motifs. In all cases, there is excellent correlation with R values ranging from 0.86 to 0.96. These scoring functions can provide a means to rapidly profile small molecules for binding to an “on-” and “off-” targets, as mentioned above. Zobs values were normalized to the most statistically significant RNA binder (100% Fitness) to afford Fitness Scores.
(§2) To test the general applicability of these approaches to other RNA motif libraries, we used 2DCS to select RNA motifs derived from a 3×2 internal loop library (3×2 ILL) that bind to small molecules 1-8. […] That is, selective binders have Zobs>8 (p<0.0001) and relative Zobs defined a scoring function for the selected RNA motif-small molecule interactions.
(§3) These studies identified that compound 4 bound with 100% Fitness to the 5′ G_U/3′CUA (one nucleotide U bulge) that is present in the Dicer processing sites of three microRNAs (miRNAs) in the oncogenic miR-17-92 cluster (contains six mature miRNAs),^43 miR-17, -18a, and -20a. […] The binding affinity of 4 for RNAs containing these three bulges was measured (FIG. 7).
(§4) Calculating Statistical Significance (Zobs) for Selected RNAs: To determine if the difference in frequency for given RNA in the starting library and in the selection was statistically significant, a pooled population comparison (Zobs) was calculated using equations (1) and (2):
(§5) [formula] […] Where n1 is the size of population 1 (number of reads for a selected RNA); n2 is the size of population 2 (number of reads for the same RNA from sequencing of the starting library); p1 is the observed proportion of population 1 (number of reads for a selected RNA divided by the total number of reads); p2 is the observed proportion for population 2 (number of reads for the same RNA divided by the total number of reads in the starting library).

The subject of assay [2] is 5′GGU/3′C_A (G bulge of pre-miR-17 and pre-miR-20a). The assay is described as follows: HiT-StARTS Fitness Score, 3×2 ILL selection. In kind it is binding, human. Particulars: Zobs normalized to most significant binder.
Description: as §1, §2, §3, §4, §5

For assay [3], the system named is 5′G_U/3′CUA (one nucleotide U bulge). The assay is described as follows: HiT-StARTS Fitness Score, 3×2 ILL selection. The note with it: Zobs normalized to most significant binder. The assay is classed as binding, human.
Description: as §1, §2, §3, §4, §5

The next assay deals with miR-19b. Briefly: RT-qPCR of mature miRNA levels in DU145 cells. In kind it is cell-based, human. The protocol: (§6) In particular, the mature levels of each miRNA in the cluster were studied by RT-qPCR. In agreement with our in vitro Dicer processing studies (FIG. 8A and Figures S-58-S-62), 4 decreases the amount of mature miR-17, -18a, and -20a at low micromolar concentrations with an IC50 of ˜10 µM, but has no effect on miR-19a, -19b, and -92a (FIG. 8B).
(§7) Cell Culture: DU145 cells were cultured in growth medium (Roswell Park Memorial Institute medium (RPMI) supplemented with 10% fetal bovine serum (FBS)) at 37° C. and 5% CO2
(§8) Total RNA was extracted from cells using a Quick-RNA Miniprep Kit (Zymo Research) per the manufacturer's protocol. Approximately 200 ng of total RNA was used in reverse transcription (RT) reactions, which were completed using a miScript II RT kit (Qiagen) per the manufacturer's protocol. RT-qPCR was performed on a 7900HT Fast Real Time PCR System (Applied Biosystem) using power SYBR Green Master Mix (Applied Biosystems). All primer sets were purchased from Integrated DNA Technologies, Inc. (IDT) or Eurofins (Table S1). The expression levels of mature miRNAs were normalized to U6 small nuclear RNA or 18s rRNA.
A general note: In qPCR the cycle at which signal appears reflects the starting amount.

Another assay concerns miR-92a. Briefly: RT-qPCR of mature miRNA levels in DU145 cells. In kind it is cell-based, human. The protocol:
as §6, §7, §8

The subject of a further assay is miR-19a. Briefly: RT-qPCR of mature miRNA levels in DU145 cells. In kind it is cell-based, human. The protocol: as §6, §7, §8
The test system of assay [4] is other miRNAs studied (of the 33 with potential binding sites). Briefly: Chem-CLIP in DU145 cell lysates. Also on record: species or system human. The note with it: 10 μM, DU145 cell lysate. The protocol: Chem-CLIP in Cell Lysates: DU145 cells were cultured as described above in 100 mm dishes and lysed with 500 μL of Cell Lysis Buffer (10 mM Tris pH 7.4, 0.25% Igepal CA-630 and 150 mM NaCl) for 5 min at room temperature. The cell lysate was then centrifuged and the supernatant collected. Next, 10 μM of 4 was added to the lysate in 1×PBS and the sample was incubated for 2 h at room temperature. The reaction was then directly used for pull-down by incubating with 50 μL of streptavidin resin in 1×PBS for 30 min at room temperature. […] RNA was eluted from the streptavidin beads by incubation with 100 μL of 1× Elution Buffer (10 mM EDTA and 95% formamide) at 65° C. for 20 min. The eluted RNA was cleaned up using a Quick-RNA Miniprep Kit (Zymo) per the manufacturer's protocol. RT-qPCR was completed as described above using 50 ng of total RNA in the RT reaction. Expression levels were normalized to 18S rRNA.

In the next assay the test system is mature miR-20a. Briefly: RT-qPCR of mature miRNA levels in DU145 cells. In kind it is cell-based. The note with it: Homo sapiens, DU-145, read-out: IC50 for decrease of mature miRNA. How it is done:
as §6, §7, §8

A further assay relates to mature miR-17. The assay is described as follows: RT-qPCR of mature miRNA levels in DU145 cells. In kind it is cell-based. The note with it: Homo sapiens, DU-145, read-out: IC50 for decrease of mature miRNA. How it is done: as §6, §7, §8
A further assay deals with mature miR-18a. The assay is described as follows: RT-qPCR of mature miRNA levels in DU145 cells. The assay is classed as cell-based. Particulars: Homo sapiens, DU-145, read-out: IC50 for decrease of mature miRNA. How it is done:
as §6, §7, §8

A further assay deals with 4IL8 RNA. Briefly: Competitive binding assay with 4-FL. Particulars: RNA 4IL8, competitive binding with 4-FL; read-out: Binding affinity. The protocol: (§9) Competitive binding assays were completed by incubating the RNA of interest with 100 nM 4-FL and increasing concentrations of 4. The resulting curves were fit to equation 4:
(§10) [formula] where θ is the percentage of 4-FL bound, [4-FL] is the concentration of 4-FL, Kt is the dissociation constant of RNA and 4-FL, [RNA] is the concentration of RNA, Ct is the concentration of 4, Kd is the dissociation constant for 4, and A is a constant.

The target in the next assay is 4IL1 RNA. The assay is described as follows: Competitive binding assay with 4-FL. The note with it: RNA 4IL1, competitive binding with 4-FL; read-out: Binding affinity. The protocol: as §9, §10

For the compound `CN1CCN(c2ccc(-c3ccc4nc(-c5cc(C(C)(C)C)c(OCCCC(=O)NCCCN=[N+]=[N-])c(C(C)(C)C)c5)[nH]c4c3)cc2)CC1` [Compound 4], the Fitness in assay [1] is recorded as 91%; in assay [2], 78%; in [3] it was 100%. The “Effect on mature miRNA level” value in the assay on miR-19b, in the assay with miR-92a and in the assay with miR-19a was “no effect” each time. The “Enrichment in pulled-down fraction” value in assay [4] is listed as “no enrichment”. In addition, the half-inhibitory concentration (IC50) with mature miR-20a, in the assay on mature miR-17 and in the assay with mature miR-18a was around 10 µM throughout. For the same compound, the Kd on 4IL8 RNA is 7.5 ± 0.6 µM; on 4IL1 RNA, 5.5 ± 1.3 µM.
